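Five compound concentrations were applied to cells in 96-well plates for 48 hours; endpoints were derived by simple linear interpolation of the resulting dose-response curve. GI50 marks 50% less growth.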 The source made the active and inactive calls. Cut-off read from the data, not from the text of the source: active = GI50 up to about 1.1 µM and inactive = higher.
Assays:
Assay in all cases: NCI-60 cell line screen, 48 h
[1] = tested on: CAKI-1
[2] = tested on: HOP-62
[3] = tested on: SNB-75
[4] = tested on: MDA-MB-435
[5] = tested on: UACC-257
[6] = tested on: SN12C
[7] = tested on: NCI-H23
[8] = tested on: SF-539
[9] = tested on: T47D
[10] = tested on: SK-OV-3
[11] = tested on: M14
[12] = tested on: UO-31
[13] = tested on: HCC 2998
[14] = tested on: UACC-62
[15] = tested on: EKVX
[16] = tested on: A549
[17] = tested on: RXF 393
[18] = tested on: IGROV-1
[19] = tested on: MCF7
[20] = tested on: MDA-N

| SMILES | GI50 [1] | GI50 [2] | GI50 [3] | GI50 [4] | GI50 [5] | GI50 [6] | GI50 [7] | GI50 [8] | GI50 [9] | GI50 [10] | GI50 [11] | GI50 [12] | GI50 [13] | GI50 [14] | GI50 [15] | GI50 [16] | GI50 [17] | GI50 [18] | GI50 [19] | GI50 [20] |
| --- | --- | --- | --- | --- | --- | --- | --- | --- | --- | --- | --- | --- | --- | --- | --- | --- | --- | --- | --- | --- |
| Cn1c2ccccc2c(=NNc2ccc(S(=O)(=O)N=C(N)N)cc2)c2ccccc21 | 10.8 µM (inactive) | 11.8 µM (inactive) | 12.2 µM (inactive) | 11 µM (inactive) | 15.5 µM (inactive) | 8.63 µM (inactive) | 9.64 µM (inactive) | 13.8 µM (inactive) | 6.35 µM (inactive) | 8.93 µM (inactive) | 16.3 µM (inactive) | 4.33 µM (inactive) | 6.25 µM (inactive) | 15.4 µM (inactive) | 5.57 µM (inactive) | 10 µM (inactive) | 0.611 µM (active) | 11.7 µM (inactive) | 3.14 µM (inactive) | 12.4 µM (inactive) |
| c1ccc2c(c1)cc1ccc3cccc4ccc2c1c34 | > 100 µM (inactive) | > 100 µM (inactive) | > 100 µM (inactive) | > 100 µM (inactive) | > 100 µM (inactive) | > 100 µM (inactive) | > 100 µM (inactive) | > 100 µM (inactive) | > 100 µM (inactive) | > 100 µM (inactive) | > 100 µM (inactive) | > 100 µM (inactive) | > 100 µM (inactive) | 67.9 µM (inactive) | 9.04 µM (inactive) | > 100 µM (inactive) | > 100 µM (inactive) | > 100 µM (inactive) | 0.134 µM (active) | > 100 µM (inactive) |
| Cn1c([N+](=O)[O-])cnc1CN1CCN(CCO)CC1 | > 100 µM (inactive) | > 100 µM (inactive) | > 100 µM (inactive) | > 100 µM (inactive) | > 100 µM (inactive) | > 100 µM (inactive) | > 100 µM (inactive) | > 100 µM (inactive) | > 100 µM (inactive) | > 100 µM (inactive) | > 100 µM (inactive) | > 100 µM (inactive) | > 100 µM (inactive) | > 100 µM (inactive) | > 100 µM (inactive) | > 100 µM (inactive) | > 100 µM (inactive) | > 100 µM (inactive) | > 100 µM (inactive) | > 100 µM (inactive) |
| N/C(=N\NC(=O)c1nc2ccccc2s1)c1ccccn1 | 1.55 µM (inactive) | 10.3 µM (inactive) | 7.74 µM (inactive) | 7.1 µM (inactive) | 15.6 µM (inactive) | 1.61 µM (inactive) | 9.86 µM (inactive) | 3.59 µM (inactive) | 10.6 µM (inactive) | 9.79 µM (inactive) | 3.01 µM (inactive) | 2.26 µM (inactive) | 8.17 µM (inactive) | 3.95 µM (inactive) | 3.68 µM (inactive) | 3.19 µM (inactive) | 7.96 µM (inactive) | 12.8 µM (inactive) | 4.39 µM (inactive) | 11.7 µM (inactive) |
| CCCCc1ccc(Nc2ncc3ncn(COCCO)c3n2)cc1 | 49.1 µM (inactive) | 26.6 µM (inactive) | 24.8 µM (inactive) | 29.4 µM (inactive) | 27.9 µM (inactive) | 46.2 µM (inactive) | 27.7 µM (inactive) | 29.3 µM (inactive) | 28.4 µM (inactive) | 79.8 µM (inactive) | 21.5 µM (inactive) | 21.1 µM (inactive) | 20.3 µM (inactive) | 25.6 µM (inactive) | 22.9 µM (inactive) | 37.2 µM (inactive) | 26.8 µM (inactive) | 28.6 µM (inactive) | 28.5 µM (inactive) | 32 µM (inactive) |
| Oc1c(CN2CCCC2)ccc2cccnc12 | 6.04 µM (inactive) | 13.3 µM (inactive) | 37.5 µM (inactive) | 38.9 µM (inactive) | 29.3 µM (inactive) | 19.3 µM (inactive) | 27 µM (inactive) | 24 µM (inactive) | 23 µM (inactive) | 25.9 µM (inactive) | 15.7 µM (inactive) | 3.44 µM (inactive) | > 47.4 µM (inactive) | 26.2 µM (inactive) | 12.3 µM (inactive) | 22.6 µM (inactive) | > 67.9 µM (inactive) | 18.8 µM (inactive) | 29.6 µM (inactive) | 39.4 µM (inactive) |
| O=C(NC(=O)c1ccccc1)OC(c1ccccc1)C1CO1 (stereo not drawn) | > 100 µM (inactive) | > 100 µM (inactive) | > 100 µM (inactive) | > 100 µM (inactive) | > 100 µM (inactive) | > 100 µM (inactive) | > 100 µM (inactive) | > 100 µM (inactive) | > 100 µM (inactive) | > 100 µM (inactive) | > 100 µM (inactive) | > 100 µM (inactive) | > 100 µM (inactive) | > 100 µM (inactive) | > 100 µM (inactive) | > 100 µM (inactive) | > 100 µM (inactive) | > 100 µM (inactive) | > 100 µM (inactive) | > 100 µM (inactive) |
| Cn1c(=O)c2c(nc3sc4ncccc4c(=O)n32)n(C)c1=O | > 100 µM (inactive) | > 100 µM (inactive) | > 100 µM (inactive) | > 100 µM (inactive) | > 100 µM (inactive) | > 100 µM (inactive) | > 100 µM (inactive) | > 100 µM (inactive) | > 100 µM (inactive) | > 100 µM (inactive) | > 100 µM (inactive) | 81.1 µM (inactive) | > 100 µM (inactive) | > 100 µM (inactive) | > 100 µM (inactive) |  | > 100 µM (inactive) | > 100 µM (inactive) | > 100 µM (inactive) | > 100 µM (inactive) |
| c1ccc2cc(CNCCOCCOCCNCc3ccc4ccccc4c3)ccc2c1 | 1.81 µM (inactive) | 1.85 µM (inactive) | 1.95 µM (inactive) | 1.8 µM (inactive) | 1.49 µM (inactive) | 2.16 µM (inactive) | 2 µM (inactive) | 1.85 µM (inactive) | 2.74 µM (inactive) | 3.13 µM (inactive) | 1.95 µM (inactive) |  | 0.208 µM (active) | 2.06 µM (inactive) | 2.54 µM (inactive) | 1.74 µM (inactive) | 1.78 µM (inactive) | 1.7 µM (inactive) | 1.79 µM (inactive) | 1.65 µM (inactive) |
| Cn1cc(-c2n[nH]c(-c3ccc(Cl)cc3)nc2=O)c2ccccc21 | 1.36 µM (inactive) | 5.36 µM (inactive) | 3.11 µM (inactive) | 0.184 µM (active) | 7.53 µM (inactive) | 6.34 µM (inactive) | 4.28 µM (inactive) | 1.08 µM (active) | 9.59 µM (inactive) | 4.31 µM (inactive) | 3.18 µM (inactive) | 1.06 µM (active) | 1.57 µM (inactive) | 1.73 µM (inactive) | 4.41 µM (inactive) | 3.94 µM (inactive) | 2.4 µM (inactive) | 4.58 µM (inactive) | 1.8 µM (inactive) | 0.399 µM (active) |
| CC1CC2OC(=O)C(C)C2CC2(C)C(OC3OC(CO)C(O)C(O)C3O)OCCC12 (stereo not drawn) | > 100 µM (inactive) | > 100 µM (inactive) | > 100 µM (inactive) | > 100 µM (inactive) | > 100 µM (inactive) | > 100 µM (inactive) | > 100 µM (inactive) | > 100 µM (inactive) | > 100 µM (inactive) | > 100 µM (inactive) | > 100 µM (inactive) |  | > 100 µM (inactive) | 16.9 µM (inactive) | > 100 µM (inactive) | > 100 µM (inactive) | > 100 µM (inactive) | > 100 µM (inactive) | > 100 µM (inactive) | > 100 µM (inactive) |
| COC(=O)c1ccc2c(c1)CC1(C2)Cc2cc3c(cc2C1)CCC3 | > 100 µM (inactive) | > 100 µM (inactive) | > 100 µM (inactive) | > 100 µM (inactive) | > 100 µM (inactive) |  | > 100 µM (inactive) | > 100 µM (inactive) | > 100 µM (inactive) | > 100 µM (inactive) | > 100 µM (inactive) | > 100 µM (inactive) | > 100 µM (inactive) |  | > 100 µM (inactive) | > 100 µM (inactive) | > 100 µM (inactive) | > 100 µM (inactive) | > 100 µM (inactive) | > 100 µM (inactive) |
| CCOc1ccnc2c(OC)c(C)c3nc4ccccc4nc3c12 | > 100 µM (inactive) | > 100 µM (inactive) | 25.3 µM (inactive) | > 100 µM (inactive) | > 100 µM (inactive) | > 100 µM (inactive) | > 100 µM (inactive) | > 100 µM (inactive) | 3.31 µM (inactive) | > 100 µM (inactive) | > 100 µM (inactive) | > 100 µM (inactive) | > 100 µM (inactive) |  | > 100 µM (inactive) | > 100 µM (inactive) | 8.39 µM (inactive) | 52.1 µM (inactive) | 26 µM (inactive) | > 100 µM (inactive) |
| CCC1=CC(OCc2ccccc2)C(CCN(Cc2ccccc2)C(=O)OCc2ccccc2)C1 (stereo not drawn) | 14.7 µM (inactive) | 16.5 µM (inactive) | 10.3 µM (inactive) | 17.1 µM (inactive) | 13.9 µM (inactive) |  | 14.9 µM (inactive) | 20.6 µM (inactive) | 6.01 µM (inactive) | 20 µM (inactive) | 13.7 µM (inactive) | 14.6 µM (inactive) | 16.5 µM (inactive) | 10.9 µM (inactive) | 16.1 µM (inactive) | 15.5 µM (inactive) | 3.5 µM (inactive) | 15.6 µM (inactive) | 16.1 µM (inactive) | 30.4 µM (inactive) |

Source: ChEMBL document CHEMBL1201862, “PubChem BioAssay data set” (2004)
